The values that follow come from patent US20260193283A1, “CARBOXAMIDE DERIVATIVE HAVING RSK INHIBITORY EFFECT, PHARMACEUTICAL COMPOSITION COMPRISING SAME, AND USE THEREOF” (KINOTECK THERAPEUTICS CO., LTD., priority 2022, published 2026).

The target of series [1] is T1, RSK2 kinase (Homo sapiens, UniProt P51812).
T1 construct: purchased Carna 01-150
The experiment in a line: HTRF KinEASE-STK assay of RSK2 kinase inhibition in vitro. The class given is biochemical. Particulars: 0.18 nM RSK2 recombinase, 10 μM ATP, read-out: IC50, in vitro inhibitory activity on RSK2 kinase. As for the experimental part: The inhibitory effect of small molecule compounds on RSK2 kinase was detected using HTRF KinEASE-STK assay. […] Specifically, firstly, 2.5×RSK2 recombinase and 5×inhibitor were added to a buffer system in a 384 well plate, and incubated at room temperature for 10 minutes, negative control wells without enzyme and positive control wells without compounds were set at the same time, then, 2.5×peptide substrate and ATP were added, and then the reaction began.
A general note: TR-FRET usually uses a lanthanide donor and a delayed reading to cut background.

The subject of series [2] is MDA-MB-453 cells. The experiment in a line: Triple negative breast cancer cell proliferation inhibition (CCK-8, 5 days). In kind it is cell-based. Particulars: Homo sapiens, 120 h, 5 days incubation, read-out: IC50, proliferation inhibitory activity on MDA-MB-453. The method, then:
The compound or vehicle control (DMSO) was diluted in culture medium in a 96 well plate, with the final concentrations of 50, 25, 12.5, 6.25, 3.13, 1.56, 0.78, 0.39, 0.2, and 0.1 μM. 1×10^3 MDA-MB-453 cells were inoculated into each well, and the plate was incubated in the incubator for 5 days. After the incubation period, cell survival was quantified using Cell Counting Kit-8 (CCK-8) reagent. In short, the cells were incubated with CCK8 for 2-4 hours, and then the absorbance at 450 nm and 650 nm was measured. CCK-8 is WST-8 (chemical name: 2-(2-methoxy-4-nitrophenyl)-3-(4-nitrophenyl)-5-(2,4-disulfonate benzene)-2H tetrazole monosodium salt), which is reduced to a highly water-soluble yellow formazan dye by dehydrogenases in cells under the action of electron carrier 1-methoxy-5-methylphenazinium sulfate dimethyl ester (1-Methoxy PMS). The number of generated formazan dye substances is directly proportional to the number of live cells, so this characteristic can be used to calculate the survival percentage, as shown in the following equation:
[formula] • As: experimental well (the treatment wells containing cells, different concentrations of drug) • Ab: solvent control well (solvent treatment wells containing cells, 0 concentration of drug) • Ac: blank well (well without cells and drugs)
The cell survival rate data and corresponding compound concentrations were input into GraphPad Prism software to fit and calculate IC50 values.

Series [3] in a line: Pharmacokinetic study in mice. In kind it is in vivo. The conditions noted are these: mouse; male ICR mice, oral gavage administration, 10 mg/kg, plasma. The method, then:
Pharmacokinetic experiments in mice were conducted using male ICR mice weighed 20-25 g, provided by the Experimental Animal Management Department of Shanghai Family Planning Scientific Research Institute. 3 mice were taken and fasted overnight, and then administered orally by gavage (10 mg/kg). Blood samples were collected before administration, at 15 and 30 minutes as well as 1, 2, 4, 8, and 24 hours after administration; in addition, another 3 mice were taken and administered intravenously (1 mg/kg), and blood samples were collected before administration, at 15 and 30 minutes as well as 1, 2, 4, 8, and 24 hours after administration. blood sample was centrifuged at 6800 g, 2-8° C. for 6 minutes, and then the plasma was collected and stored at −80° C. Plasma at each time point were added 10-20 times the amount of methanol or acetonitrile solution containing internal standard, and mixed by vortex for 1 minute, centrifuged at 18000 rpm at 4° C. for 10 minutes, and then the supernatant was taken to analyze by LC-MS/MS directly. The main pharmacokinetic parameters were analyzed using WinNonlin 7.0 software for non compartmental model analysis.

As usually defined, the AUC(0-t) is exposure summed from dosing to a finite time, without extrapolation to infinity. Low readings indicate less exposure, high ones more exposure. Usually Cmax stands for the maximum level reached in the sampled fluid or tissue. As a reminder, the Tmax is the time from dosing to the highest level. As usually defined, the half-life is how long it takes for the measured level to halve. Read a low half-life as rapid decline.

T1 sequence (P51812 whole entry): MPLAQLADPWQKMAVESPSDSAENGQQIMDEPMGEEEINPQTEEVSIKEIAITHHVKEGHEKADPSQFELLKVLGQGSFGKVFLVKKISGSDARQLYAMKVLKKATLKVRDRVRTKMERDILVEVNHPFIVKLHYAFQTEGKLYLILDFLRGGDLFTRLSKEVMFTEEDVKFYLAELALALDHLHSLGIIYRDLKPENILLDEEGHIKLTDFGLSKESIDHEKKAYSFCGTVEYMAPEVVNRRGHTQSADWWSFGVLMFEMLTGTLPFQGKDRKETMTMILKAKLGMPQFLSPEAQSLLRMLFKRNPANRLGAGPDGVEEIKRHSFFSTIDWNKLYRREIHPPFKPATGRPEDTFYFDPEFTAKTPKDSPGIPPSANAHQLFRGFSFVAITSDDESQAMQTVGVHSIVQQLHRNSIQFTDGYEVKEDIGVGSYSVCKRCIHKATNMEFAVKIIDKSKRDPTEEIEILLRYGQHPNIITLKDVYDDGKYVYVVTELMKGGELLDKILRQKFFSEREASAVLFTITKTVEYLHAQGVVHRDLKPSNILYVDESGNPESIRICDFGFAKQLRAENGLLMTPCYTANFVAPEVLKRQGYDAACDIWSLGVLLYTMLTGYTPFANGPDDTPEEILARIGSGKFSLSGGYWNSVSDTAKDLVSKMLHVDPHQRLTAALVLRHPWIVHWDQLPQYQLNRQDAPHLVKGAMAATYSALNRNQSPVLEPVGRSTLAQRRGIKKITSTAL

For `C[C@@H]1CNC(=O)c2cc3ccc(C(=O)Nc4cnn(Cc5ccc(P(C)(C)=O)cc5)c4)nc3n21` [Compound 1, (R)—N-(1-(4-(dimethylphosphoryl)benzyl)-1H-pyrazol-4-yl)-9-methyl-6-oxo-6,7,8,9-tetrahydropyridino[3′, 2′: 4,5]pyrrolo [1,2-a]pyrazine-2-carboxamide], the IC50 in series [1] was determined as 0.44 nM.

`C[C@@H]1CNC(=O)c2cc3ccc(C(=O)Nc4cnn(Cc5ccc(N=S(C)(C)=O)cc5)c4)nc3n21` [Compound 2, (R)—N-(1-(4-((dimethyl (oxo)-λ^6-sulfanylidene)amino)benzyl)-1H-pyrazol-4-yl)-9-methyl-6-oxo-6,7,8,9-tetrahydropyridino [3′,2′: 4,5]pyrrolo [1,2-a]pyrazine-2-carboxamide]: the IC50 in series [1] came to 0.31 nM.

For the compound `C[C@@H]1CNC(=O)c2cc3ccc(C(=O)Nc4cnn(Cc5ccc(S(C)(=N)=O)cc5)c4)nc3n21` (some centres unmarked) [Compound 3], in series [1], the IC50 is 0.24 nM.

With `C[C@@H]1CNC(=O)c2cc3ccc(C(=O)Nc4cnn(Cc5ccnc(C(C)(C)O)c5)c4)nc3n21` [Compound 4], the IC50 in series [1] came to 0.42 nM; in series [2], 2660 nM.

Turning to `C[C@@H]1CNC(=O)c2cc3ccc(C(=O)Nc4cnn(Cc5ccc(C(C)(C)O)nc5)c4)nc3n21` [Compound 5], the IC50 in series [1] worked out at 0.35 nM. Moreover, in series [2], the IC50 amounted to 2040 nM. Moreover, in series [3], the AUC(0-t) came to 35.1 µg·h/mL, the peak level (Cmax) was 17.9 µg/mL, the time of peak concentration (Tmax) came to 15 min and the half-life was 94.2 min.

Consider `C[C@@H]1CNC(=O)c2cc3cc(F)c(NC(=O)c4cnn(Cc5ccc(N)cc5)c4)nc3n21` [Compound 6, (R)-1-(4-aminobenzyl)-N-(3-fluoro-9-methyl-6-oxo-6,7,8,9-tetrahydropyridino [3′, 2″: 4,5]pyrrolo [1,2-a]pyrazin-2-yl)-1H-pyrazole-4-carboxamide], for which the IC50 in series [1] turned out to be 175 nM.

On to `C[C@@H]1CNC(=O)c2cc3ccc(C(=O)Nc4cnn(Cc5ccc(N)cc5)c4)c(F)c3n21` [Compound 7, (R)—N-(1-(4-aminobenzyl)-1H-pyrazol-4-yl)-6-fluoro-4-methyl-1-oxo-1,2,3,4-tetrahydropyrazino [1,2-a]indole-7-carboxamide], for which, in series [1], the IC50 came out at 99.9 nM.

On to `CC(c1ccc(C(C)(C)O)nc1)n1cc(NC(=O)c2ccc3cc4n(c3n2)[C@H](C)CNC4=O)cn1` (stereo partly drawn) [Compound 8, (9R)—N-(1-(1-(6-(2-hydroxyprop-2-yl)pyridin-3-yl)ethyl)-1H-pyrazol-4-yl)-9-methyl-6-oxo-6,7,8,9-tetrahydropyridino [3′, 2′: 4,5]pyrrolo [1,2-a]pyrazine-2-carboxamide], for which the IC50 in series [1] is 0.8 nM; in series [2] it was 5610 nM.

With `Cc1cc(NC(=O)c2ccc3cc4n(c3n2)[C@H](C)CNC4=O)nn1Cc1ccc(C(C)(C)O)nc1` [Compound 9], the IC50 in series [1] is 43 nM.

Regarding `C[C@@H]1CNC(=O)c2cc3ccc(C(=O)Nc4cnn(Cc5ccc(C6(O)CC6)nc5)c4)nc3n21` [Compound 10], in series [1], the IC50 was 0.11 nM.

Regarding `C[C@@H]1CNC(=O)c2cc3ccc(C(=O)Nc4cnn(Cc5ccc(C6(O)CCC6)nc5)c4)nc3n21` [Compound 11], the IC50 in series [1] amounted to 0.29 nM.

As for `C[C@@H]1NC(=O)c2cc3ccc(C(=O)Nc4cnn(Cc5ccc(C(C)(C)O)nc5)c4)nc3n2[C@@H]1C` [Compound 12], in series [1], the IC50 was determined as 0.43 nM.

On to `C[C@@H]1CNC(=O)c2cc3ccc(C(=O)Nc4cnn(Cc5ccc(C(C)(C)O)nc5)c4)c(F)c3n21` [Compound 13], for which the IC50 in series [1] was 5.43 nM.

In the case of `C[C@H]1Cn2c(cc3ccc(C(=O)Nc4cnn(Cc5ccc(C(C)(C)O)nc5)c4)nc32)C(=O)N1` [Compound 14], in series [1], the IC50 turned out to be 1.58 nM.

Regarding `C[C@@H]1CNC(=O)c2cc3ccc(C(=O)Nc4cnn(Cc5cnc(C(C)(C)O)c(F)c5)c4)nc3n21` [Compound 15, (R)—N-(1-((5-fluoro-6-(2-hydroxyprop-2-yl)pyridin-3-yl)methyl)-1H-pyrazol-4-yl)-9-methyl-6-oxo-6,7,8,9-tetrahydropyridino [3, 2′: 4,5]pyrrolo [1,2-a]pyrazine-2-carboxamide], the IC50 in series [1] stood at 0.08 nM. For the same compound, in series [2], the IC50 was determined as 2480 nM. In series [3], the AUC(0-t) is 99.3 µg·h/mL, the Cmax amounted to 22.8 µg/mL, the Tmax turned out to be 30 min and the half-life was 131 min.

Take `C[C@@H]1NC(=O)c2cc3ccc(C(=O)Nc4cnn(Cc5cnc(C(C)(C)O)c(F)c5)c4)nc3n2[C@@H]1C` [Compound 16, (8S, 9R)—N-(1-((5-fluoro-6-(2-hydroxyprop-2-yl)pyridin-3-yl)methyl)-1H-pyrazol-4-yl)-8,9-dimethyl-6-oxo-6,7,8,9-tetrahydropyridino [3′, 2′: 4,5]pyrrolo [1,2-a]pyrazine-2-carboxamide]: in series [1], the IC50 amounted to 0.08 nM.

Consider `[2H]C([2H])([2H])C(O)(c1ccc(Cn2cc(NC(=O)c3ccc4cc5n(c4n3)[C@H](C)CNC5=O)cn2)cn1)C([2H])([2H])[2H]` [Compound 17], for which the IC50 in series [1] amounted to 0.22 nM.

In the case of `C[C@@H]1CNC(=O)c2cc3ccc(C(=O)Nc4cnn(Cc5ccc(N)cc5)c4)nc3n21.Cl` [Control Compound II, reference compound], the IC50 in series [1] was determined as 1.08 nM. In addition, the IC50 in series [2] was determined as 4600 nM. Moreover, in series [3], the AUC(0-t) was found to be 4.61 µg·h/mL, the highest level (Cmax) was 3.42 µg/mL, the time of peak concentration (Tmax) was found to be 25.2 min and the half-life was 49.2 min.
